Data reported in US12595269B2, “Morpholine-like monoamine releasers” (Solvonis Therapeutics Ireland Holdings Limited, priority 2022, dated 2026).

Target: T1, CYP2B6 (Homo sapiens, UniProt P20813)
T1 construct: purchased Life Technologies P3028; host or cells: Baculosomes
T1 sequence (P20813 1-491): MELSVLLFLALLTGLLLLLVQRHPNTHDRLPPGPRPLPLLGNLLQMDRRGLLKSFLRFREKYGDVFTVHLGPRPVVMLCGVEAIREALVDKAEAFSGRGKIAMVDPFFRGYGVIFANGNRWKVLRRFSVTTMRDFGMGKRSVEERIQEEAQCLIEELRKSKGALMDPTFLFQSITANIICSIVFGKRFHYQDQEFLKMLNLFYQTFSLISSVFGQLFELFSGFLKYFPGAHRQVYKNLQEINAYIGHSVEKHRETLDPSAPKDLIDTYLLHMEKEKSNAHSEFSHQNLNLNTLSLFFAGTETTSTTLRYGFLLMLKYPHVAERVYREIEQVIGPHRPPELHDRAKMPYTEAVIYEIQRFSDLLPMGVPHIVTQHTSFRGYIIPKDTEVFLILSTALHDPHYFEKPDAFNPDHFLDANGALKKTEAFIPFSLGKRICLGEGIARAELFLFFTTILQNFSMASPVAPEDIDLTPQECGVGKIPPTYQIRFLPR
Test: CYP450 inhibition, Vivid CYP2B6 Baculosomes, BOMCC substrate
Format: in vitro ADME
Procedure: Methods and Procedure: The study was performed in agreement with previously described procedures to assure data integrity and adherence to GLP standards. Briefly, recombinant human CYP450 isoenzymes were used to metabolize pro-fluorescent probe substrates to fluorescent products. IC50 values determined from the effect of test compounds on the metabolism of these probe substrates were then used to determine inhibitory potency against CYP450 isoforms.
The test system was based on a three-step procedure with a “mix and read” format, where PGP-432,TI reaction and reading were performed at 37° C. […] Fluorescence was measured in kinetic mode (1 read/minutes for 10 minutes), and the fluorescence rate was calculated. […]
Next, 10 μL/well from the compound plate was added and incubated for 10 minutes at 37° C. on a plate shaker, while a mixture of Vivid Substrate and Vivid NADP+ in Vivid CYP450 Reaction Buffer was prepared. The reaction was initiated by adding 10 μL/well of the Vivid Substrate and NADP+ mixture, before transferring the plate into the fluorescent plate reader (immediately, within 2 minutes), and fluorescence was monitored every minute for 10 minutes according to the specific protocol. Regarding data analysis, the inhibition effect is expressed as a percentage. […]

Row | Compound | IC50 (recombinant human CYP2B6) [µM] | IC50 at 10 min (human, recombinant CYP2B6 Baculosomes, pH 8, probe Vivid BOMCC) [µM]
1 | Clc1ccc(C23CNC(CO2)C3)cc1Cl (centres unmarked) [522A, 1-(3,4-dichlorophenyl)-2-oxa-5-azabicyclo[2.2.1]heptane] | 41 | 
2 | CNC(C)Cc1ccc2c(c1)OCO2 (centres unmarked) [MDMA, reference compound] |  | 50
